Experimental data reported in PubChem BioAssay (NCI).
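Method: 48-hour compound exposure of cells in 96-well plates, five concentrations, linear interpolation of endpoints. Definition used: TGI = concentration required for complete inhibition of growth.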

Key:
Assay in all cases: NCI tumour cell line growth inhibition, 48 h
786-0 renal = test system: 786-0 renal
A549 NSCLC = test system: A549 NSCLC
CAKI-1 renal = test system: CAKI-1 renal
CCRF-CEM leukemia = test system: CCRF-CEM leukemia
COLO 205 colon = test system: COLO 205 colon
DU-145 prostate = test system: DU-145 prostate
EKVX NSCLC = test system: EKVX NSCLC
HCC-2998 colon = test system: HCC-2998 colon
HCT-15 colon = test system: HCT-15 colon
HL-60(TB) leukemia = test system: HL-60(TB) leukemia
HOP-62 NSCLC = test system: HOP-62 NSCLC
HT29 colon = test system: HT29 colon
IGROV1 ovarian = test system: IGROV1 ovarian
K-562 leukemia = test system: K-562 leukemia
KM12 colon = test system: KM12 colon
M14 melanoma = test system: M14 melanoma
MALME-3M melanoma = test system: MALME-3M melanoma
MCF7 breast = test system: MCF7 breast
MDA-MB-231 breast = test system: MDA-MB-231 breast
MDA-N = test system: MDA-N
MOLT-4 leukemia = test system: MOLT-4 leukemia
NCI-H23 lung = test system: NCI-H23 lung
OVCAR-8 ovarian = test system: OVCAR-8 ovarian
PC-3 prostate = test system: PC-3 prostate
RPMI-8226 leukemia = test system: RPMI-8226 leukemia
RXF 393 renal = test system: RXF 393 renal
SF-268 CNS = test system: SF-268 CNS
SF-295 CNS = test system: SF-295 CNS
SK-MEL-28 melanoma = test system: SK-MEL-28 melanoma
SK-MEL-5 melanoma = test system: SK-MEL-5 melanoma
SK-OV-3 ovarian = test system: SK-OV-3 ovarian
SN12C renal = test system: SN12C renal
SNB-75 CNS = test system: SNB-75 CNS
SR leukemia = test system: SR leukemia
SW-620 colon = test system: SW-620 colon
T-47D breast = test system: T-47D breast
TK-10 renal = test system: TK-10 renal
UACC-257 melanoma = test system: UACC-257 melanoma
UACC-62 melanoma = test system: UACC-62 melanoma
A498 renal = test system: A498 renal
ACHN renal = test system: ACHN renal
HCT-116 colon = test system: HCT-116 colon
HOP-92 NSCLC = test system: HOP-92 NSCLC
LOX IMVI melanoma = test system: LOX IMVI melanoma
MDA-MB-435 = test system: MDA-MB-435
NCI-H226 lung = test system: NCI-H226 lung
NCI-H522 lung = test system: NCI-H522 lung
NCI/ADR-RES ovarian = test system: NCI/ADR-RES ovarian
OVCAR-3 ovarian = test system: OVCAR-3 ovarian
OVCAR-4 ovarian = test system: OVCAR-4 ovarian
OVCAR-5 ovarian = test system: OVCAR-5 ovarian
SF-539 CNS = test system: SF-539 CNS
SK-MEL-2 melanoma = test system: SK-MEL-2 melanoma
SNB-19 CNS = test system: SNB-19 CNS
U251 CNS = test system: U251 CNS
UO-31 renal = test system: UO-31 renal
BT-549 breast = test system: BT-549 breast
HS 578T breast = test system: HS 578T breast
NCI-H460 lung = test system: NCI-H460 lung

N#Cc1ccc(NC(=NCC(=O)O)Nc2ccc3ccccc3c2)cc1
TGI (786-0 renal): > 10 µM | TGI (A549 NSCLC): > 10 µM | TGI (CAKI-1 renal): > 10 µM | TGI (CCRF-CEM leukemia): > 10 µM | TGI (COLO 205 colon): > 10 µM | TGI (DU-145 prostate): > 10 µM | TGI (EKVX NSCLC): > 10 µM | TGI (HCC-2998 colon): > 10 µM | TGI (HCT-15 colon): > 10 µM | TGI (HL-60(TB) leukemia): > 10 µM | TGI (HOP-62 NSCLC): > 10 µM | TGI (HT29 colon): > 10 µM | TGI (IGROV1 ovarian): > 10 µM | TGI (K-562 leukemia): > 10 µM | TGI (KM12 colon): > 10 µM | TGI (M14 melanoma): > 10 µM | TGI (MALME-3M melanoma): > 10 µM | TGI (MCF7 breast): > 10 µM | TGI (MDA-MB-231 breast): > 10 µM | TGI (MDA-N): > 10 µM | TGI (MOLT-4 leukemia): > 10 µM | TGI (NCI-H23 lung): > 10 µM | TGI (OVCAR-8 ovarian): > 10 µM | TGI (PC-3 prostate): > 10 µM | TGI (RPMI-8226 leukemia): > 10 µM | TGI (RXF 393 renal): > 10 µM | TGI (SF-268 CNS): > 10 µM | TGI (SF-295 CNS): > 10 µM | TGI (SK-MEL-28 melanoma): > 10 µM | TGI (SK-MEL-5 melanoma): > 10 µM | TGI (SK-OV-3 ovarian): > 10 µM | TGI (SN12C renal): > 10 µM | TGI (SNB-75 CNS): > 10 µM | TGI (SR leukemia): > 10 µM | TGI (SW-620 colon): > 10 µM | TGI (T-47D breast): > 10 µM | TGI (TK-10 renal): > 10 µM | TGI (UACC-257 melanoma): > 10 µM | TGI (UACC-62 melanoma): > 10 µM

Cc1[nH]c(=O)nc2c1C(=O)N(C(C)C)C(NC(C)C)S2 (configuration not stated)
TGI (786-0 renal): > 100 µM | TGI (A498 renal): > 100 µM | TGI (A549 NSCLC): > 100 µM | TGI (ACHN renal): > 100 µM | TGI (CAKI-1 renal): > 100 µM | TGI (CCRF-CEM leukemia): > 100 µM | TGI (COLO 205 colon): > 100 µM | TGI (DU-145 prostate): > 100 µM | TGI (EKVX NSCLC): > 100 µM | TGI (HCC-2998 colon): > 100 µM | TGI (HCT-116 colon): > 100 µM | TGI (HCT-15 colon): > 100 µM | TGI (HL-60(TB) leukemia): > 100 µM | TGI (HOP-62 NSCLC): > 100 µM | TGI (HOP-92 NSCLC): > 100 µM | TGI (HT29 colon): > 100 µM | TGI (IGROV1 ovarian): > 100 µM | TGI (K-562 leukemia): > 100 µM | TGI (KM12 colon): > 100 µM | TGI (LOX IMVI melanoma): > 100 µM | TGI (M14 melanoma): > 100 µM | TGI (MALME-3M melanoma): > 100 µM | TGI (MCF7 breast): > 100 µM | TGI (MDA-MB-231 breast): > 100 µM | TGI (MDA-MB-435): > 100 µM | TGI (MDA-N): > 100 µM | TGI (MOLT-4 leukemia): > 100 µM | TGI (NCI-H226 lung): > 100 µM | TGI (NCI-H23 lung): > 100 µM | TGI (NCI-H522 lung): > 100 µM | TGI (NCI/ADR-RES ovarian): > 100 µM | TGI (OVCAR-3 ovarian): > 100 µM | TGI (OVCAR-4 ovarian): > 100 µM | TGI (OVCAR-5 ovarian): > 100 µM | TGI (OVCAR-8 ovarian): > 100 µM | TGI (PC-3 prostate): > 100 µM | TGI (RPMI-8226 leukemia): > 100 µM | TGI (RXF 393 renal): > 100 µM | TGI (SF-295 CNS): > 100 µM | TGI (SF-539 CNS): > 100 µM | TGI (SK-MEL-2 melanoma): > 100 µM | TGI (SK-MEL-28 melanoma): > 100 µM | TGI (SK-MEL-5 melanoma): > 100 µM | TGI (SK-OV-3 ovarian): > 100 µM | TGI (SN12C renal): > 100 µM | TGI (SNB-19 CNS): > 100 µM | TGI (SNB-75 CNS): > 100 µM | TGI (SW-620 colon): > 100 µM | TGI (T-47D breast): > 100 µM | TGI (TK-10 renal): > 100 µM | TGI (U251 CNS): > 100 µM | TGI (UACC-257 melanoma): > 100 µM | TGI (UACC-62 melanoma): > 100 µM | TGI (UO-31 renal): > 100 µM

O=C1c2cccc3cc4ccccc4c(c23)C(=O)N1CCCNCCNCCCN1C(=O)c2cccc3cc4ccccc4c(c23)C1=O
TGI (786-0 renal): 1.69 µM | TGI (A498 renal): 1.91 µM | TGI (A549 NSCLC): 0.373 µM | TGI (ACHN renal): 1.6 µM | TGI (BT-549 breast): 2.4 µM | TGI (CAKI-1 renal): 1.52 µM | TGI (DU-145 prostate): 2.04 µM | TGI (EKVX NSCLC): 2.37 µM | TGI (HCC-2998 colon): 1.71 µM | TGI (HCT-116 colon): 0.168 µM | TGI (HCT-15 colon): 1.36 µM | TGI (HL-60(TB) leukemia): 8.28 µM | TGI (HOP-62 NSCLC): 1.72 µM | TGI (HS 578T breast): 1.98 µM | TGI (HT29 colon): 0.555 µM | TGI (IGROV1 ovarian): 1.72 µM | TGI (K-562 leukemia): 0.337 µM | TGI (KM12 colon): 1.29 µM | TGI (M14 melanoma): 2.21 µM | TGI (MALME-3M melanoma): 1.8 µM | TGI (MDA-MB-231 breast): 1.66 µM | TGI (MDA-MB-435): 1.73 µM | TGI (MDA-N): 1.82 µM | TGI (MOLT-4 leukemia): 1.36 µM | TGI (NCI-H23 lung): 1.77 µM | TGI (NCI-H460 lung): 0.161 µM | TGI (NCI-H522 lung): 1.46 µM | TGI (OVCAR-3 ovarian): 1.86 µM | TGI (OVCAR-4 ovarian): 1.58 µM | TGI (OVCAR-5 ovarian): 1.98 µM | TGI (OVCAR-8 ovarian): 0.337 µM | TGI (PC-3 prostate): 1.43 µM | TGI (RPMI-8226 leukemia): 0.387 µM | TGI (RXF 393 renal): 1.58 µM | TGI (SF-268 CNS): 2.18 µM | TGI (SF-295 CNS): 1.64 µM | TGI (SF-539 CNS): 1.45 µM | TGI (SK-MEL-5 melanoma): 1.39 µM | TGI (SK-OV-3 ovarian): 1.65 µM | TGI (SN12C renal): 1.86 µM | TGI (SNB-19 CNS): 2.23 µM | TGI (SNB-75 CNS): 1.48 µM | TGI (SR leukemia): 1.51 µM | TGI (T-47D breast): 2.54 µM | TGI (TK-10 renal): 2.18 µM | TGI (U251 CNS): 1.73 µM | TGI (UACC-257 melanoma): 2.25 µM | TGI (UO-31 renal): 1.96 µM

O=C1c2ccccc2C(=O)c2c1c1cc(O)ccc1n2Cc1ccc(Cl)cc1Cl
TGI (786-0 renal): 8.09 µM | TGI (A498 renal): 38.1 µM | TGI (A549 NSCLC): 13.3 µM | TGI (BT-549 breast): 36.9 µM | TGI (CAKI-1 renal): 14.4 µM | TGI (CCRF-CEM leukemia): 18.9 µM | TGI (COLO 205 colon): 29.8 µM | TGI (DU-145 prostate): > 100 µM | TGI (HCT-116 colon): 73.2 µM | TGI (HCT-15 colon): 23.3 µM | TGI (HL-60(TB) leukemia): > 100 µM | TGI (HOP-62 NSCLC): 9.88 µM | TGI (HS 578T breast): > 100 µM | TGI (HT29 colon): 51 µM | TGI (IGROV1 ovarian): 21.2 µM | TGI (K-562 leukemia): > 100 µM | TGI (KM12 colon): > 100 µM | TGI (LOX IMVI melanoma): 11.4 µM | TGI (M14 melanoma): 46.6 µM | TGI (MALME-3M melanoma): 63.9 µM | TGI (MCF7 breast): 16.5 µM | TGI (MDA-MB-231 breast): 17.5 µM | TGI (MDA-MB-435): 27.8 µM | TGI (MDA-N): 38.7 µM | TGI (MOLT-4 leukemia): 43.4 µM | TGI (NCI-H226 lung): 31.1 µM | TGI (NCI-H23 lung): 19.9 µM | TGI (NCI-H460 lung): 11.8 µM | TGI (NCI/ADR-RES ovarian): 11.7 µM | TGI (OVCAR-4 ovarian): 4.27 µM | TGI (OVCAR-5 ovarian): 5.66 µM | TGI (OVCAR-8 ovarian): 19.1 µM | TGI (PC-3 prostate): 3.97 µM | TGI (RPMI-8226 leukemia): 26.7 µM | TGI (RXF 393 renal): 9.44 µM | TGI (SF-268 CNS): 29.7 µM | TGI (SF-295 CNS): 20.1 µM | TGI (SF-539 CNS): 14.7 µM | TGI (SK-MEL-2 melanoma): 33.9 µM | TGI (SK-MEL-28 melanoma): 36.1 µM | TGI (SK-MEL-5 melanoma): 47.4 µM | TGI (SK-OV-3 ovarian): 13.8 µM | TGI (SN12C renal): 16.3 µM | TGI (SNB-19 CNS): 34.7 µM | TGI (SR leukemia): > 100 µM | TGI (SW-620 colon): > 100 µM | TGI (TK-10 renal): 27.4 µM | TGI (U251 CNS): 12.2 µM | TGI (UACC-257 melanoma): 69.9 µM | TGI (UACC-62 melanoma): 21.8 µM | TGI (UO-31 renal): 37.9 µM
